# Assay results from ChEMBL document CHEMBL1201862, “PubChem BioAssay data set” (2004).
#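 Protocol summary: plate cells (96-well), add compound at 5 concentrations, incubate 48 h, interpolate endpoints linearly. GI50: concentration for 50% inhibition of growth.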 Activity calls are given as the source filed them. No stated cut-off is given here; in the data, active = GI50 up to about 1.1 µM and inactive = higher.
# Assays:
# Test in all cases: NCI tumour cell line growth inhibition, 48 h
# OVCAR-3 = test system: OVCAR-3
# SK-OV-3 = test system: SK-OV-3
# HOP-62 = test system: HOP-62
# SF-539 = test system: SF-539
# DU-145 = test system: DU-145
# SW-620 = test system: SW-620
# UACC-257 = test system: UACC-257
# CAKI-1 = test system: CAKI-1
# MDA-MB-435 = test system: MDA-MB-435
# SK-MEL-5 = test system: SK-MEL-5
# A549 = test system: A549
# A498 = test system: A498
# SK-MEL-2 = test system: SK-MEL-2
# COLO 205 = test system: COLO 205
# OVCAR-8 = test system: OVCAR-8
# SNB-19 = test system: SNB-19
# HOP-92 = test system: HOP-92
# SF-295 = test system: SF-295
# UACC-62 = test system: UACC-62
# SNB-75 = test system: SNB-75
# BT-549 = test system: BT-549
# ACHN = test system: ACHN
# NCI-H522 = test system: NCI-H522
# OVCAR-4 = test system: OVCAR-4
# U-251 = test system: U-251
# LOX IMVI = test system: LOX IMVI
# SR = test system: SR
# UO-31 = test system: UO-31
# CCRF-CEM = test system: CCRF-CEM
# HT-29 = test system: HT-29
# RPMI-8226 = test system: RPMI-8226
# HCT-116 = test system: HCT-116
# Hs-578T = test system: Hs-578T
# PC-3 = test system: PC-3
# HCT-15 = test system: HCT-15
# SF-268 = test system: SF-268
# MCF7 = test system: MCF7
# NCI-H460 = test system: NCI-H460
# 786-0 = test system: 786-0
# TK-10 = test system: TK-10
# IGROV-1 = test system: IGROV-1
# T47D = test system: T47D
# SK-MEL-28 = test system: SK-MEL-28
# NCI-H226 = test system: NCI-H226
# OVCAR-5 = test system: OVCAR-5
# MOLT-4 = test system: MOLT-4
# MDA-MB-231 = test system: MDA-MB-231
# NCI-H23 = test system: NCI-H23
# HL-60 = test system: HL-60
# MDA-N = test system: MDA-N
# NCI/ADR-RES = test system: NCI/ADR-RES
# EKVX = test system: EKVX
# Malme-3M = test system: Malme-3M
# HCC 2998 = test system: HCC 2998
# M14 = test system: M14
# SN12C = test system: SN12C
# RXF 393 = test system: RXF 393
# K562 = test system: K562
# KM12 = test system: KM12
smiles,measurement,setting,value
CC(=O)OC1CCn2c1nc1c2C(=O)C=C(N2CC2)C1=O (stereo unspecified),GI50,OVCAR-3,0.215 µM (active)
same,GI50,SK-OV-3,2.15 µM (inactive)
same,GI50,HOP-62,2.11 µM (inactive)
same,GI50,SF-539,0.22 µM (active)
same,GI50,DU-145,3.31 µM (inactive)
same,GI50,SW-620,< 0.0211 µM (active)
same,GI50,UACC-257,0.292 µM (active)
same,GI50,CAKI-1,0.032 µM (active)
same,GI50,MDA-MB-435,0.476 µM (active)
same,GI50,SK-MEL-5,0.142 µM (active)
same,GI50,A549,1.41 µM (inactive)
same,GI50,A498,0.218 µM (active)
same,GI50,SK-MEL-2,0.2 µM (active)
same,GI50,COLO 205,0.0697 µM (active)
same,GI50,OVCAR-8,0.402 µM (active)
same,GI50,SNB-19,2.88 µM (inactive)
same,GI50,HOP-92,0.378 µM (active)
same,GI50,SF-295,1.81 µM (inactive)
same,GI50,UACC-62,0.0697 µM (active)
same,GI50,SNB-75,0.174 µM (active)
same,GI50,BT-549,1.27 µM (inactive)
same,GI50,ACHN,0.0354 µM (active)
same,GI50,NCI-H522,0.0112 µM (active)
same,GI50,OVCAR-4,0.0746 µM (active)
same,GI50,U-251,0.218 µM (active)
same,GI50,LOX IMVI,0.0719 µM (active)
same,GI50,SR,0.0953 µM (active)
same,GI50,UO-31,0.103 µM (active)
same,GI50,CCRF-CEM,< 0.01 µM (active)
same,GI50,HT-29,0.693 µM (active)
same,GI50,RPMI-8226,0.251 µM (active)
same,GI50,HCT-116,0.153 µM (active)
same,GI50,Hs-578T,0.524 µM (active)
same,GI50,PC-3,0.931 µM (active)
same,GI50,HCT-15,0.403 µM
same,GI50,SF-268,0.185 µM (active)
same,GI50,MCF7,0.173 µM (active)
same,GI50,NCI-H460,1.15 µM (inactive)
same,GI50,786-0,0.108 µM (active)
same,GI50,TK-10,0.292 µM (active)
same,GI50,IGROV-1,0.449 µM (active)
same,GI50,T47D,0.745 µM (active)
same,GI50,SK-MEL-28,0.0314 µM (active)
same,GI50,NCI-H226,1.86 µM (inactive)
same,GI50,OVCAR-5,0.774 µM (active)
same,GI50,MOLT-4,0.033 µM (active)
same,GI50,MDA-MB-231,1.91 µM (inactive)
same,GI50,NCI-H23,0.269 µM (active)
same,GI50,HL-60,0.17 µM (active)
same,GI50,MDA-N,0.332 µM (active)
same,GI50,NCI/ADR-RES,0.402 µM (active)
same,GI50,EKVX,1.02 µM (active)
same,GI50,Malme-3M,0.0311 µM (active)
same,GI50,HCC 2998,1.45 µM (inactive)
same,GI50,M14,0.0519 µM (active)
same,GI50,SN12C,0.65 µM (active)
same,GI50,RXF 393,0.0748 µM (active)
same,GI50,K562,0.394 µM (active)
CCCCc1ccc(Nc2ncc3ncn(COCCO)c3n2)cc1,GI50,OVCAR-3,22.8 µM (inactive)
same,GI50,SK-OV-3,79.8 µM (inactive)
same,GI50,HOP-62,26.6 µM (inactive)
same,GI50,SF-539,29.3 µM (inactive)
same,GI50,DU-145,33.3 µM (inactive)
same,GI50,SW-620,47.9 µM (inactive)
same,GI50,UACC-257,27.9 µM (inactive)
same,GI50,CAKI-1,49.1 µM (inactive)
same,GI50,MDA-MB-435,29.4 µM (inactive)
same,GI50,SK-MEL-5,21.8 µM (inactive)
same,GI50,A549,37.2 µM (inactive)
same,GI50,A498,46.6 µM (inactive)
same,GI50,SK-MEL-2,25.2 µM (inactive)
same,GI50,COLO 205,36.1 µM (inactive)
same,GI50,OVCAR-8,29 µM (inactive)
same,GI50,SNB-19,44.3 µM (inactive)
same,GI50,HOP-92,25.8 µM (inactive)
same,GI50,SF-295,27.3 µM (inactive)
same,GI50,UACC-62,25.6 µM (inactive)
same,GI50,SNB-75,24.8 µM (inactive)
same,GI50,BT-549,36.1 µM (inactive)
same,GI50,ACHN,26.1 µM (inactive)
same,GI50,NCI-H522,34.1 µM (inactive)
same,GI50,OVCAR-4,41.1 µM (inactive)
same,GI50,KM12,27.3 µM (inactive)
same,GI50,U-251,39.4 µM (inactive)
same,GI50,LOX IMVI,17.9 µM (inactive)
same,GI50,SR,17.1 µM (inactive)
same,GI50,UO-31,21.1 µM (inactive)
same,GI50,CCRF-CEM,20.8 µM (inactive)
same,GI50,HT-29,21.8 µM (inactive)
same,GI50,RPMI-8226,16.4 µM (inactive)
same,GI50,HCT-116,21 µM (inactive)
same,GI50,Hs-578T,20.8 µM (inactive)
same,GI50,PC-3,27 µM (inactive)
same,GI50,HCT-15,34.9 µM
same,GI50,SF-268,40.9 µM (inactive)
same,GI50,MCF7,28.5 µM (inactive)
same,GI50,NCI-H460,22.4 µM (inactive)
same,GI50,786-0,26.6 µM (inactive)
same,GI50,TK-10,37.8 µM (inactive)
same,GI50,IGROV-1,28.6 µM (inactive)
same,GI50,T47D,28.4 µM (inactive)
same,GI50,NCI-H226,62.2 µM (inactive)
same,GI50,OVCAR-5,32.7 µM (inactive)
same,GI50,MOLT-4,21.6 µM (inactive)
same,GI50,MDA-MB-231,18.9 µM (inactive)
same,GI50,NCI-H23,27.7 µM (inactive)
same,GI50,HL-60,23.8 µM (inactive)
same,GI50,MDA-N,32 µM (inactive)
same,GI50,NCI/ADR-RES,29 µM (inactive)
same,GI50,EKVX,22.9 µM (inactive)
same,GI50,Malme-3M,23.1 µM (inactive)
same,GI50,HCC 2998,20.3 µM (inactive)
same,GI50,M14,21.5 µM (inactive)
same,GI50,SN12C,46.2 µM (inactive)
same,GI50,RXF 393,26.8 µM (inactive)
same,GI50,K562,14 µM (inactive)
